Data: ChEMBL document CHEMBL1201862, “PubChem BioAssay data set” (2004)
Activity calls are given as the source filed them. Rule as the data show it, for most assays here: actives have a measured EC50 and inactives only a lower limit.

Experiments:
[1] = test system: Streptococcus; assay: Group A Streptococcus viability loss, dose response, counter-screen for streptokinase expression inhibitor project, luminescence, BacTiterGlo (AID 1915); format: functional, organism-based;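 also: potency for reduction of bacterial viability or growth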
[2] = test system: Streptococcus sp. 'group A'; assay: growth inhibition of control SK(-) GAS strain, dose response, counter-screen for streptokinase expression inhibitor project, luminescence, kanamycin, BacTiterGlo, confirmation (AID 1900); format: functional, organism-based
[3] = molecular target: T1, Streptokinase A (Streptococcus pyogenes serotype M1, UniProt P10520); assay: S. pyogenes streptokinase expression inhibitors, potency, dose response, plasminogen activation absorbance, OD405 (AID 1914); format: functional, Streptococcus pyogenes M1 GAS;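 also: secreted streptokinase activity via plasminogen activation per viability signal from cell pellet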
T1 sequence (P10520 whole entry): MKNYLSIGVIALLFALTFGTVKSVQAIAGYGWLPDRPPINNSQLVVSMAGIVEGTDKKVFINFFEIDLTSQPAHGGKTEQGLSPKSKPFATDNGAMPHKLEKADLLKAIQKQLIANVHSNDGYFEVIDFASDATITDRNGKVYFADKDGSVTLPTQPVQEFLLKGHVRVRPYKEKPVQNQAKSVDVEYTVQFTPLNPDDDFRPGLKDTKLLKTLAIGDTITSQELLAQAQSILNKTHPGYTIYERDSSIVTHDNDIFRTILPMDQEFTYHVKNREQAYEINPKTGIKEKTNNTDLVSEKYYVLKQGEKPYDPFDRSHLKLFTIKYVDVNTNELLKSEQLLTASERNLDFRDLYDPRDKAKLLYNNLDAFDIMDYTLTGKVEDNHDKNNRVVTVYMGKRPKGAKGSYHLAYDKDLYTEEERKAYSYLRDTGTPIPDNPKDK

[4] = inhibitors of intracellular T. cruzi replication, confirmation, NIH3T3 host cells, beta-gal luminescence (AID 2044); format: functional, cell-based;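 also: intracellular parasites grown in NIH/3T3 mouse fibroblasts as host cells; luminescent beta-galactosidase reporter signal from transgenic T. cruzi replicating inside host cells; inhibitors lower the luminescence signal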
[5] = cytotoxicity toward NIH3T3 fibroblasts, dose response, counter-screen, cell-based, ATP luminescence, mouse fibroblasts (AID 2010); format: functional;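 also: cells exposed to compound for about 90 hours before reading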
[6] = molecular target: T2, Corticotropin-releasing factor receptor 2/Corticotropin-releasing factor-binding protein (Homo sapiens, UniProt P24387+Q13324); assay: activators of CRF receptor 2 with binding protein – uHTS hits, confirmation (AID 602473); format: functional; settings: read-out: EC50_Mean
T2 sequence (Q13324 whole entry): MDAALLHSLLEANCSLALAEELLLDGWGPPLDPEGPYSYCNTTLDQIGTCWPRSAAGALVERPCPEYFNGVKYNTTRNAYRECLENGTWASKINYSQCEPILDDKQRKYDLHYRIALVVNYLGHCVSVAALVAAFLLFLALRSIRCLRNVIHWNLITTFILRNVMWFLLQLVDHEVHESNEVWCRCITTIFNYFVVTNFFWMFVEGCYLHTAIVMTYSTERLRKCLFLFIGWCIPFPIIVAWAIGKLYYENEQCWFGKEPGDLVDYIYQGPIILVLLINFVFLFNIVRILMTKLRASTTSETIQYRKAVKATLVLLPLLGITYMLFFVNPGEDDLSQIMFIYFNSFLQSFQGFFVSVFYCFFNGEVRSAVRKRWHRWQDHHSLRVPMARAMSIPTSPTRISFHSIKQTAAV
T2 sequence (P24387 whole entry): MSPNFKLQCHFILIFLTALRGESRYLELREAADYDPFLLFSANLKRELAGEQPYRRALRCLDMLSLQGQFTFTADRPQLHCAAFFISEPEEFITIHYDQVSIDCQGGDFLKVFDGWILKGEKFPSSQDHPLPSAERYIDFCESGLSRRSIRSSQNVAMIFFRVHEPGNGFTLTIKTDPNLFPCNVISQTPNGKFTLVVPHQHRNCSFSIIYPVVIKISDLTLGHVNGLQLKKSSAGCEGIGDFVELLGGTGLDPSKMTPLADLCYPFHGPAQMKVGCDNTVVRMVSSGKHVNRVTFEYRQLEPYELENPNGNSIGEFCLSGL

[7] = molecular target: Cytochrome P450 2C9 (Homo sapiens, UniProt P11712)
Cytochrome P450 2C9, sequence (P11712 whole entry): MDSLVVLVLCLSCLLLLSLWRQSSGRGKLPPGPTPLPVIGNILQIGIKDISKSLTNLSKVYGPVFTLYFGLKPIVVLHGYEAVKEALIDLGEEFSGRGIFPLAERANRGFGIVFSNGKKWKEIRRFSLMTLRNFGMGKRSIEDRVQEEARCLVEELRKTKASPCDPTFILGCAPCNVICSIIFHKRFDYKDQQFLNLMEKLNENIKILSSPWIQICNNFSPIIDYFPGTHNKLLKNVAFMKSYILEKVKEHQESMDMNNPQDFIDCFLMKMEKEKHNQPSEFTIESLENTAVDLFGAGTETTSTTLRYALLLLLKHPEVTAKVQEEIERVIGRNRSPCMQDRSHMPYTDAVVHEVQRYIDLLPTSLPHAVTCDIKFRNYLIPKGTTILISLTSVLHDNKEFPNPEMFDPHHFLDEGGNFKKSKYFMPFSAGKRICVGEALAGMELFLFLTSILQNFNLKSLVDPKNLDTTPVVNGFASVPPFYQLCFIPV

[8] = test system: H4; assay: Luminescence Cell-Based Dose Response HTS to Identify Activators of 5'UTR Stem-Loop Driven Prion Protein mRNA Translation in H4 Neuroglioblastoma Cells. [Related pubchem assays: 1829 (Project Summary), 1814 (Primary HTS)]; format: functional; settings: Homo sapiens
[9] = Luminescence Cell-Based Dose Response HTS to Identify Activators of Luciferase Translation or Activity in H4 […] Cells. [Related pubchem assays: 1829 (Project Summary), 1814 (Primary HTS)]; format: functional
[10] = Luminescence Cell-Based Dose Confirmation HTS to Identify Activators of 5'UTR Stem-Loop Driven Alpha-Synuclein mRNA Translation in H4 Neuroglioblastoma Cells. [Related pubchem assays: 1829 (Project Summary), 1814 (Primary HTS)]; format: functional

Row | Structure (SMILES) | EC50 [4] | EC50 [5] | EC50 [8] | EC50 [9] | EC50 [10] | further results
1 | Cn1c(C(=O)N2CCN(c3ccc([N+](=O)[O-])cc3)CC2)cc2c(O)nc3ccccc3c21 |  |  |  |  |  | EC50 [1]: > 150 µM (not active); EC50 [2]: 5.33 µM (active); EC50 [3]: > 150 µM (not active)
2 | COc1cccc(CC2(CO)CCCN(Cc3cc4ccccc4[nH]3)C2)c1 (centres undefined) | 0.834 µM (active) | > 60 µM (not active) |  |  |  | EC50 [6]: 18.1 µM (active)
3 | CN(C)c1ccc(/C=C2\Oc3ccc(C#Cc4cccc(N)c4)cc3C2=O)cc1 |  |  |  |  |  | EC50 [6]: 5.04 µM (active)
4 | CCOC(=O)c1sc(N(Cc2ccccc2)C(=O)CN2C(=O)CN(C)C2=O)nc1C |  |  |  |  |  | AC50 [7]: 11.2 µM (inconclusive)
5 | CC1(C)OC2OC(COC(=O)c3ccccc3)C3OC(C)(C)OC3C2O1 (centres undefined) |  |  | 17.3 µM (active) | 10.1 µM (active) | 15.5 µM (active) | 
6 | Cn1c(C(=O)NCc2cccnc2)cc2sc(Cl)cc21 | 0.488 µM (active) | > 60 µM (not active) |  |  |  | 
7 | Cc1cc(C)c(C)c(C(=O)CSc2nnc(-c3ccc4[nH]c(C)c(C)c4c3)o2)c1C | 1.61 µM (active) | > 60 µM (not active) |  |  |  | 
8 | COc1ccc2[nH]c3c(c2c1)CN(C)CC3 |  |  |  |  |  | AC50 [7]: 39.8 µM (inconclusive)
9 | CCOc1ccc(C(=O)Nc2c(C(=O)N3CCC(N4CCCCC4)CC3)oc3ccccc23)cc1 | 6.28 µM (active) | > 60 µM (not active) |  |  |  | 
10 | CC(C)c1ccc(CNc2ccc3c(c2)ncn3C)cc1 |  |  | > 120 µM (not active) | 0.228 µM (inconclusive) | 0.217 µM (active) | 
11 | Cc1ccc(-c2nc3ccccc3n3nnnc23)cc1 |  |  | 4.81 µM (active) | 10.1 µM (active) | 0.363 µM (active) | 
12 | Cc1nc(NS(=O)(=O)c2ccc(Cl)s2)c2c3c(sc2n1)CCCC3 |  |  |  |  |  | EC50 [1]: 14.9 µM (active); EC50 [2]: 4.37 µM (active); EC50 [3]: 21.5 µM (inconclusive)
13 | CCCOc1cccc(CN2CCCCC2c2cccnc2)c1 (centres undefined) | 1.53 µM (active) | > 60 µM (not active) |  |  |  | 
14 | CC(C)c1ccc(NC(=O)N2CCc3ccccc3C2)cc1 |  |  | 18.3 µM (active) | 12.2 µM (active) | 12.1 µM (active) | 
15 | CCOc1ccc(/C=C/C(=O)C(C(N)=O)=C2SCCS2)cc1 |  |  | 7.17 µM (active) | > 120 µM (not active) | 1.98 µM (active) | 
16 | CC(=O)c1cn(CCCCCCCCCCn2cc(C(C)=O)c(=O)[nH]c2=O)c(=O)[nH]c1=O |  |  |  |  |  | AC50 [7]: 3.16 µM (inconclusive)
17 | COc1cc2cc3c(N)c(C(=O)NCc4ccco4)sc3nc2cc1OC |  |  | 11.1 µM (active) | 49.9 µM (active) | 73.7 µM (active) | 
18 | Cc1ccc(CNC(=O)c2cccc3c2C(=O)c2ccc(N4CCCCC4)cc2S3(=O)=O)cc1 |  |  |  |  |  | EC50 [6]: 6.87 µM (active)
19 | Cc1ccc(-c2nn(-c3ccccc3)cc2C(=O)Nc2ccc(C)c(S(=O)(=O)N3CCOCC3)c2)cc1 | 1.57 µM (active) | > 60 µM (not active) | > 120 µM (not active) | > 120 µM (not active) | > 120 µM (not active) | 
20 | CC1C(=O)OC2C1CCC1(C)CCC(=O)C(C)C21 (centres undefined) | 2.61 µM (active) | > 60 µM (not active) |  |  |  | 
21 | CC1=CC(C)(C)N2C(=O)C3(C(C#N)=C(N)Oc4cc(C)oc(=O)c43)c3cc(C)cc1c32 (centres undefined) | 0.253 µM (active) | > 60 µM (not active) |  |  |  | 
22 | CNC(=S)N1CCN(c2cccc(OC)c2)CC1 |  |  |  |  |  | AC50 [7]: 22.4 µM (inconclusive)
23 | Oc1nc2cc3c(cc2cc1C(c1nnnn1C1CCCCC1)N1CCSCC1)OCCO3 (centres undefined) |  |  |  |  |  | EC50 [6]: > 53 µM (inactive)
24 | COc1ccc2c(c1OC)CN1CCc3cc4c(cc3C1C2)OCO4 (centres undefined) [TETRAHYDROBERBERINE] | 3.43 µM (active) | > 60 µM (not active) |  |  |  | 
25 | O=C(Nc1ccc(-n2ccc(C(F)(F)F)n2)cc1)Nc1cccc(Cl)c1 | 2.01 µM (active) | 6.82 µM (active) |  |  |  | 

Row | Structure (SMILES) | EC50 [4] | EC50 [5] | EC50 [8] | EC50 [9] | EC50 [10] | further results
26 | O=C(NCCCn1ccnc1)c1sc2cccc(F)c2c1Cl | 2.02 µM (active) | > 60 µM (not active) |  |  |  | 
27 | O=C(c1cnccn1)N1CCC2(CC1)CN(c1ccncc1)C2 |  |  |  |  |  | AC50 [7]: 25.1 µM (inconclusive)
28 | O=[N+]([O-])c1cccc(-c2nnn(C34CC5CC(CC(C5)C3)C4)n2)c1 |  |  | 15 µM (active) | 7.38 µM (active) | > 120 µM (not active) | 
29 | Cc1cc(Oc2ccccc2)nc(NCc2ccccc2)n1 |  |  |  |  |  | AC50 [7]: 10 µM (inconclusive)
30 | N=C(NOC(=O)C1CCCCC1)c1ccc(Br)cc1 |  |  | 1.23 µM (active) | 28.7 µM (active) | 27.6 µM (active) | 
31 | O=C(/C=C/c1ccc([N+](=O)[O-])s1)N1CCN(c2ccccc2)CC1 | 1.81 µM (active) | 9.18 µM (active) |  |  |  | 
32 | CN(C(=O)c1cccc(N2C(=O)C3C4C=CC(C4)C3C2=O)c1)C1CCCCC1 (centres undefined) |  |  | > 120 µM (not active) | > 120 µM (not active) | > 120 µM (not active) | 
33 | CSCCC(=O)Nc1cc(S(=O)(=O)N2CCOCC2)ccc1N1CCN(C)CC1 | 1.94 µM (active) | > 60 µM (not active) |  |  |  | 
34 | CCOCCCN1C(=O)CN(C2CCCCC2)C(=O)C1c1ccc(OCC)c(OC)c1 (centres undefined) |  |  |  |  |  | AC50 [7]: 11.2 µM (inconclusive)
35 | CCc1ccc(NC(=O)C(C)OC(=O)/C=C/c2ccc(O)c(OC)c2)cc1 (centres undefined) |  |  |  |  |  | EC50 [6]: 5.63 µM (active)
36 | Cc1cccc(CNc2ncncc2-c2cccc(NS(C)(=O)=O)c2)c1 |  |  |  |  |  | AC50 [7]: 1 µM (inconclusive)
37 | NC(=O)NCc1ccc(Cl)cc1 |  |  |  |  |  | AC50 [7]: 0.0501 µM (inconclusive)
38 | Cc1ccnc(NC(=O)CCCNC(=O)c2ccc(Cl)cc2)c1 |  |  | 51.9 µM (active) | 24.3 µM (active) | 18.2 µM (active) | 
39 | Cc1ccc(C2NC(=O)c3c(sc(C)c3C)N2)c(O)c1 (centres undefined) |  |  | 21.7 µM (active) | 22.4 µM (active) | 3.83 µM (active) | 
40 | Brc1ccccc1C1CC(c2ccccc2)=Nc2ccccc2N1 (centres undefined) |  |  | 36.5 µM (active) | 11.5 µM (active) | 9.58 µM (active) | 
41 | Cc1cccc(N2CCN(C(c3ccncc3)c3nnnn3C(C)(C)C)CC2)c1C (centres undefined) | 2.57 µM (active) | > 60 µM (not active) |  |  |  | 
42 | CCCCOC(=O)c1[nH]c(C)c(C(=O)OC)c1C |  |  | 37.7 µM (active) | 51.1 µM (active) | 2.88 µM (active) | 
43 | COc1ccc(NC(=N)Nc2nc(C)cc(C)n2)cc1 |  |  |  |  |  | EC50 [6]: 13.5 µM (active)
44 | c1ccc(-c2cc(-c3nc4ccccc4[nH]3)c3ccccc3n2)cc1 | 1.7 µM (active) | > 60 µM (not active) |  |  |  | 
45 | Cn1c(=O)c(-c2cccs2)nc2cnc(Oc3ccccc3)nc21 |  |  |  |  |  | AC50 [7]: 20 µM (inconclusive)
46 | COc1ccc2cc(C(=O)NCC3CCCO3)[nH]c2c1 (centres undefined) |  |  |  | 22.9 µM (active) | 7.02 µM (active) | 
47 | N#Cc1c(N)n(Cc2ccccc2)c(=O)c2cc([N+](=O)[O-])ccc12 | 1.41 µM (active) | > 60 µM (not active) |  |  |  | 
48 | NC(=O)c1ccccc1Nc1nc2nc3ccccc3c(=O)n2cc1Br |  |  | > 120 µM (not active) | 8.23 µM (active) | > 120 µM (not active) | 
49 | Cc1cc(C)c2c(CN3CCC(C)CC3)cc(=O)oc2c1 |  |  | 26.3 µM (active) | > 120 µM (not active) | 0.419 µM (active) | 
